≈ marks a conversion by molar mass, not a printed value.

Consider six molecules from patent US20120035219A1, “Compound for the Treatment of Tuberculosis” (ASTRAZENECA AB, priority 2009, published 2012).

Data set [1] can be described thus: Pharmacokinetic parameters in rat. Format: in vivo. The conditions noted are these: plasma; Rat (20-25 mg/kg). On the procedure: (§1) PK analyses of the plasma concentration-time relationships were performed with WinNonLin software (or any other suitable software program). A noncompartmental analysis program was used to calculate the PK parameters, such as the maximum concentration of drug in plasma (Cmax), time to Cmax(tmax), elimination rate constant, elimination half-life, and AUC from time zero to infinity (AUC0-inf)
(§2) The compounds were dosed to animals at various doses (not exceeding 25 mg/kg) and the concentration of the compound at various time points was estimated.

The nature of data set [2]: PPB (fraction free), mouse. The conditions noted are these: plasma.
Data set [3] has as its system Mtu H37Rv (ATCC 27294). As to the kind of experiment: MIC testing, Microplate Alamar Blue Assay. The conditions noted are these: Mycobacterium tuberculosis. Format: cell-based. (In general: Alamar Blue is a resazurin reagent that responds to reducing activity.)
Data set [4] relates to Mtu H37Rv (ATCC 27294). Nature of the data set: Minimum bactericidal concentration (MBC), plating on 7H10 agar. Format: cell-based. The conditions noted are these: Mycobacterium tuberculosis; concentration giving less than 50 colonies.
The subject of data set [5] is mycobacteria. The conditions noted are these: cited from earlier work.
Data set [6] deals with Mtu in bone marrow derived macrophages from BALB/c mice. As to the kind of experiment: Bone marrow derived macrophages (BMDM) intracellular infection model. Format: cell-based, Mycobacterium tuberculosis. The conditions noted are these: for BMDM (log Redn @ 8 μg/mL): 10 days drug exposure, CFU.
Data set [7] deals with Mtu (tubercle bacilli) lung infection. As to the kind of experiment: In vivo dose-response, aerosol infection model, 4 wk efficacy. The conditions noted are these: BALB/c mice, oral once daily, 6 days a week for 4 weeks.
Data set [8] can be described thus: Pharmacokinetic parameters in dog. The conditions noted are these: plasma; Dog (12.5-15 mg/kg). The class given is in vivo. On the procedure: as §1, §2
The nature of data set [9]: Pharmacokinetic parameters in mouse. Format: in vivo, BALB/c mice. On the procedure: BALB/c mice (8-10 week old) were dosed with the compound in an appropriate vehicle at specified doses as a single dose at a dose volume of 10 mL/Kg. The dose was administered either orally or parentally. Blood samples were collected at various time points ranging from 0.08 h to 50 h post dosing and plasma harvested by acceptable methods like precipitation or extraction. The concentration of the compound in plasma was determined by standard analytical instruments like HPLC and/or LC-MS.
as §1, §2

The conditions of data set [10]: compared with Linezolid; cited from earlier work.
For data set [11] the following is noted: cited from earlier work.
For data set [12] the following is noted: cited from earlier work. The source holds these as a separate data set.
Data set [13] in a line: in vitro. The conditions noted are these: mouse.
Data set [14] relates to slow growing mycobacteria. The conditions noted are these: cited from earlier work.
For data set [15] the following is noted: cited from earlier work. The source holds these as a separate data set.
Data set [16] concerns M. tuberculosis. The conditions noted are these: given orally or parenterally to experimental animals; cited from earlier work.
Setting [17] is: BALB/c, plasma, Mouse (10 mg/kg).
[18] abbreviates: mouse, at the minimum effective dose.

As for `CC(=O)NC[C@H]1CN(c2ccc(N3CCOCC3)c(F)c2)C(=O)O1` [Linezolid, N—[(S)-3-(3-Fluoro-4-morpholin-4-yl-phenyl)-2-oxo-oxazolidin-5-ylmethyl]-acetamide], the AUC in data set [1] is 41600 ng·h/mL; in data set [8], 42000 ng·h/mL; in data set [9] (BALB/c, plasma, oral, mouse, at the minimum effective dose, read-out: AUC), 279000 ng·h/mL; in data set [9] (BALB/c, plasma, Mouse (10 mg/kg), read-out: AUC), 7300 ng·h/mL. The half-life (usually the time in which the quantity being followed falls by half) was 1.3 to 3 h in [1], 4 h in [8] and 1 h in data set [9] (setting [17]). For the same molecule, in data set [2], the fraction unbound (commonly the share of the substance not bound to proteins or other matrix) came out at 0.7. For the same molecule, the MIC (as a rule, the lowest concentration that inhibits growth of the organism) in data set [3] was determined as 0.5 µg/mL (≈ 1.48 µM). The MBC (usually the smallest concentration meeting the test's criterion for killing) in [4] worked out at 4 µg/mL (≈ 11.9 µM). Besides, the “antimycobacterial activities in the murine model” value in [5] is on record as “promising antimycobacterial activities”. For the same molecule, the “BMDM (log Redn @ 8 μg/mL)” value in [6] is on record as −0.05 log. Further, in [7], the “Minimum Effective Dose in a 4 wk efficacy model” value worked out at 250 mg/kg. In data set [9] (setting [18]), this molecule gave a fAUC/MIC of 390.24. The same molecule showed a fAUC in data set [9] (mouse, at the minimum effective dose, AUC x fraction free) of 195.12.
With `CC(=O)NC[C@H]1CN(c2ccc(-c3ccc(-c4nnnn4C)nc3)c(F)c2)C(=O)O1` [DA-7867], the in vivo efficacy entry in [10] is “better in vivo efficacy than Linezolid”. The “tolerability in rat toxicology studies” value in [11] is given as “poorly tolerated”. In [12], the in vitro efficacy entry is listed as “good in vitro”.
As for `O=C([C@@H](O)CO)N1CC=C(c2c(F)cc(N3C[C@H](COc4ccon4)OC3=O)cc2F)CC1` [AZD2563, (5R)-3-[4-[1-[(2S)-2,3-dihydroxypropanoyl]-3,6-dihydro-2H-pyridin-4-yl]-3,5-difluoro-phenyl]-5-(isoxazol-3-yloxymethyl)oxazolidin-2-one], the fraction unbound in data set [13] stood at 0.18. Further, the half-life in data set [1] is 4 to 6 h; in data set [8], 10 h; in data set [9] (setting [17]) it was 1.3 h. The molecule also showed an MIC in data set [3] of 0.5 µg/mL (≈ 1.07 µM). Also, in [4], the MBC turned out to be 2 µg/mL (≈ 4.3 µM). The “BMDM (log Redn @ 8 μg/mL)” value in [6] is on record as 1.3 log. In addition, the “bactericidal activity in the intracellular infection model (BMDM) as compared to Linezolid” value in data set [6] (compared to Linezolid) is “greater bactericidal activity”. Besides, the “Minimum Effective Dose in a 4 wk efficacy model” value in data set [7] is reported as 125 mg/kg. Besides, the AUC in data set [9] (BALB/c, mouse, in vivo) came to 150000 ng·h/mL; in data set [9] (BALB/c, mouse, in vivo, 10 mg/kg), 20300 ng·h/mL. Moreover, in data set [9] (BALB/c, mouse, in vivo), the fAUC is recorded as 27.07. Also, the fAUC/MIC in data set [9] (setting [18]) was found to be 54.14.
For the molecule `CC(=O)NC[C@H]1CN(c2ccc(N3CCN(Cc4ccc([N+](=O)[O-])o4)CC3)c(F)c2)C(=O)O1` [RBx 7644], the antimycobacterial activity entry in data set [14] is listed as “modest antimycobacterial activity”.
Consider `CC(=O)NC[C@H]1CN(c2ccc(N3CCSCC3)c(F)c2)C(=O)O1` [PNU-100480], for which the “antimycobacterial activities in the murine model” value in data set [5] is recorded as “promising antimycobacterial activities”.
On to `CC(=O)NC[C@H]1CN(c2ccc(C(C)=O)cc2)C(=O)O1` [DuP-721], for which, in data set [15], the “toxicity in animal models” value is “lethal toxicity”. Besides, the “activity against M. tuberculosis” value in data set [16] is “good activity”.
